Test results from patent publication US20090280193A1, “Enerceutical mediated activation of the Alternative Cellular Energy (ACE) pathway in the therapy of diseases” (priority 2008, published 2009).

Test: UV light induced fluorescence when mixed with freshly prepared neutral red
Assay type: physicochemical
Source text: This concept is fully consistent with the finding that various mineral and organic substances can be formulated that similarly show fluorescence when mixed with neutral red and illuminated with UV light. Not all cellular energy delivering products show this reaction but may yet presumably still be are able to absorb energies; and further that such absorption may be facilitated using various types of dyes or other chemicals. The advantage of a current formulation that has been devised over the last several years is that it clearly fluoresces with neutral red and that a distant action can be easily observed in a distantly held neutral red indication solution. This action includes otherwise unexplained movements of fine particles within the neutral red solution and more strikingly the induced crystallization that occurs in the neutral red solution. […] The UV inducible fluorescence, or other form of energy emission, within the plastic bags will typically evoke some discernable fluorescence within at least some skin areas in most of the treated and symptomatic patients, consistent with an overall systemic activation of the body's ACE pathway. […] The liquid-in-a-bag format also allows for the addition of other materials that can further enhance the activation and/or fluorescence of the formulations being studied. […]

CCN(CC)CC(=O)Nc1c(C)cccc1C [Lidocaine]
fluorescence with neutral red: will not fluoresce
